Measured values reported in publication PMC6356855, “Two New Succinimide Derivatives Cladosporitins A and B from the Mangrove-derived Fungus Cladosporium sp. HNWSW-1” (Marine Drugs, 2018).

Tests used:
Hela cell line = test: MTT cytotoxicity assay, Hela; assay type: cell-based; conditions: MTT method, mean ± SD, n = 3
Experimental: (§1) The MTT method optimized by Mosmann et al. was performed in vitro to test the cytotoxic activity of compounds 1–6. Adriamycin was used as a positive control and the medium without the test compound was used as a negative control in the bioassay.

BEL-7042 cell line = test: MTT cytotoxicity assay, BEL-7042; assay type: cell-based; conditions: MTT method, mean ± SD, n = 3
Experimental: as §1

K562 cell line = test: MTT cytotoxicity assay, K562; assay type: cell-based; conditions: MTT method, mean ± SD, n = 3
Experimental: as §1

SGC-7901 cell line = test: MTT cytotoxicity assay, SGC-7901; assay type: cell-based; conditions: MTT method, mean ± SD, n = 3
Experimental: as §1

α-glycosidase = α-glycosidase inhibitory activity assay; assay type: biochemical; conditions: α-glycosidase inhibition in vitro; mean ± SD, n = 3
Experimental: The method optimized by Jong et al. was performed in vitro to test the α-glucosidase inhibitory activity of compounds 1–5. Acarbose was used as positive control.

[1] = Homo sapiens, K562, cytotoxicity
[2] = Homo sapiens, SGC-7901, cytotoxicity

Molecule	IC50 (Hela cell line) [µM]	IC50 (BEL-7042 cell line) [µM]	IC50 (K562 cell line; cytotoxicity) [µM]	IC50 (SGC-7901 cell line; cytotoxicity) [µM]	IC50 (α-glycosidase) [µM]	IC50 (Hela cell line; Homo sapiens) [µM]	IC50 (K562 cell line; [1]) [µM]	IC50 (SGC-7901 cell line; [2]) [µM]
1,3,6-trihydroxy-7-(1-hydroxyethyl) anthracene-9,10-dione [Compound 5]	> 50	> 50	> 50	> 50	49.3 ± 10.6			
C[C@H]1O[C@H](O[C@H]2[C@H](O)[C@@H](O)[C@@H](O[C@H]3[C@H](O)[C@@H](O)C(O)O[C@@H]3CO)O[C@@H]2CO)[C@H](O)[C@@H](O)[C@@H]1N[C@H]1C=C(CO)[C@@H](O)[C@H](O)[C@H]1O (stereo partly drawn) [Acarbose, reference compound]					275.7 ± 2.7			
COc1cccc2c1C(=O)c1c(O)c3c(c(O)c1C2=O)C[C@@](O)(C(=O)CO)C[C@@H]3O[C@H]1C[C@H](N)[C@H](O)[C@H](C)O1 [Adriamycin, reference compound]		11.9 ± 0.37				11.5 ± 0.18	14.2 ± 0.66	6.66 ± 0.2
CCC(C)C=C(C)C1C(C)=CC2(C)CC(C)CCC2C1C(=O)C1C(=O)NC(=O)C1Cc1ccc(O)cc1 (stereo not drawn) [Compound 1, cladosporitin A]		> 50			> 500	> 50	> 50	> 50
CCC(C)C=C(C)C1C(C)=CC2(C)CC(C)CCC2C1C(=O)C1C(=O)NC(=O)C1Cc1ccc(O)cc1 (stereo not drawn) [Compound 2, cladosporitin B]	> 50	29.4 ± 0.35	25.6 ± 0.47	41.7 ± 0.71	> 500			
C/C=C/c1cc(=O)c2c(C)cc(O)cc2o1 [Compound 3, clapone]		> 50			> 500	> 50	> 50	> 50
CCC(C)/C=C(\C)[C@H]1C(C)=C[C@@]2(C)C[C@@H](C)CC[C@@H]2[C@H]1C(=O)C1=C/C(=C/c2ccc(O)cc2)NC1=O (stereo partly drawn) [Compound 4, talaroconvolutin A]		26.7 ± 1.1			78.2 ± 2.1	14.9 ± 0.21	> 50	> 50
